# Reference: patent US20230064983A1 (priority 2020, published 2023)
# Several values for one entry are separate records, joined by “and”; a condition that tells them apart may be missing. Equal values may be shown once.
# Assays:
# [1] = target: T1, EGFR with insertion SVD between D770 and N771 (mutEGFR D770_N771insSVD) (Homo sapiens, UniProt P00533, DUP768-770); test: Exon20-Mutant-EGFR(D770_N771insSVD) kinase assay (TR-FRET); type: biochemical; details: 2 mM ATP, Table 2
# T1 construct: amino acids R669 to A1210; made in house; host or cells: Sf9 insect cells (baculovirus)
# [2] = target: Ba/F3-EGFR-D770_N771insSVD cells (Homo sapiens, UniProt P00533, DUP768-770, cells depend on it); test: Ba/F3 cell survival assay, EGFR D770_N771insSVD; type: cell-based; details: Cell Titer-Glo, 48 h, without IL-3; Table 4; read-out: BA/F3 (insSVD) IC50
# [3] = target: T2, Bub1 (Homo sapiens, UniProt O43683); test: Bub1 high ATP kinase assay (TR-FRET); type: biochemical; details: Bub1 high ATP (2 mM) IC50, TR-FRET, 2 mM ATP; Table 3
# T2 construct: catalytic domain of human Bub1 (amino acids 704-1085); His6 (N); made in house; host or cells: insect cells (Hi5)
# Summary of the method: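 Enzyme was His6-tagged human Bub1 catalytic domain (aa 704-1085) from Hi5 insect cells, typically about 200 ng/ml, with a biotinylated peptide substrate at high ATP. Reaction ran 60 min at 22 °C, then was stopped with EDTA. Phosphopeptide was detected by TR-FRET (anti-phosphoserine antibody, Eu-labelled anti-mouse IgG, streptavidin-XL665), read as the 665/620 nm emission ratio.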
# [4] = target: Ba/F3-EGFR-WT cells (Homo sapiens, UniProt P00533); test: Ba/F3 cell survival assay, wild type EGFR; type: cell-based; details: Cell Titer-Glo, 48 h, with 10 ng/mL EGF; Table 4; read-out: BA/F3 (wild type) IC50
# Chain of Ba/F3-EGFR-WT cells (P00533 whole entry, looked up, stated change not applied): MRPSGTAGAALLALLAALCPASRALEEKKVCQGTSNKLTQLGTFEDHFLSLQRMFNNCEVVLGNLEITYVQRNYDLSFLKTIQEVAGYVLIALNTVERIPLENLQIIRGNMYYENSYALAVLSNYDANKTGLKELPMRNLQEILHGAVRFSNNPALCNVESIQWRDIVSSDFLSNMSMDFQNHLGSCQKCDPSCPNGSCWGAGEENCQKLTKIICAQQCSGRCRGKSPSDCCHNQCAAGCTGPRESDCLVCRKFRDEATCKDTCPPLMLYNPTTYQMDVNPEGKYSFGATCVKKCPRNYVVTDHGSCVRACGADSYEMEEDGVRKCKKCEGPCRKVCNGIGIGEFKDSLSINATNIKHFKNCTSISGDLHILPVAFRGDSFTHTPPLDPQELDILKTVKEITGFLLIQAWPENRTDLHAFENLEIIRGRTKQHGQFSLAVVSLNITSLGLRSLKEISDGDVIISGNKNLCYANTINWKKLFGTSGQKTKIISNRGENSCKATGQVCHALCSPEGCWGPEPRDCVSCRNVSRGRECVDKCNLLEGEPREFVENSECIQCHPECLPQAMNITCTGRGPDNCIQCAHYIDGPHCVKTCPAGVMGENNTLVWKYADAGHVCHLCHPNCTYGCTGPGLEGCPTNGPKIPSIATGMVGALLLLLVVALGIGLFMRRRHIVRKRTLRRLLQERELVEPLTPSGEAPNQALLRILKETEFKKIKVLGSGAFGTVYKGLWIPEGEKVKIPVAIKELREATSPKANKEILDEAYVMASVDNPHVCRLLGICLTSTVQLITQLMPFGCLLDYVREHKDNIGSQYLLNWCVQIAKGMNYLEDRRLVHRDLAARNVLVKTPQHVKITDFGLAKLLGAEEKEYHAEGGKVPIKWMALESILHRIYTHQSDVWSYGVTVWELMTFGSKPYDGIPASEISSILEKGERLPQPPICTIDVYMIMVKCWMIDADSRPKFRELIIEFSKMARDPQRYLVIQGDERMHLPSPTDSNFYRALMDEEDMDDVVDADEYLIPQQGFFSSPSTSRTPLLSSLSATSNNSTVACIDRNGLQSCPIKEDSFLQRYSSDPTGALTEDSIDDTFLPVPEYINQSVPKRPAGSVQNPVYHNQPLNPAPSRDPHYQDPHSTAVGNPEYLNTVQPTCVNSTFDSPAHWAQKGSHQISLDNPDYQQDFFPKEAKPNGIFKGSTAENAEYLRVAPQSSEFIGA
# Chain of Ba/F3-EGFR-D770_N771insSVD cells (P00533 with tags, fused parts or gaps DUP768-770): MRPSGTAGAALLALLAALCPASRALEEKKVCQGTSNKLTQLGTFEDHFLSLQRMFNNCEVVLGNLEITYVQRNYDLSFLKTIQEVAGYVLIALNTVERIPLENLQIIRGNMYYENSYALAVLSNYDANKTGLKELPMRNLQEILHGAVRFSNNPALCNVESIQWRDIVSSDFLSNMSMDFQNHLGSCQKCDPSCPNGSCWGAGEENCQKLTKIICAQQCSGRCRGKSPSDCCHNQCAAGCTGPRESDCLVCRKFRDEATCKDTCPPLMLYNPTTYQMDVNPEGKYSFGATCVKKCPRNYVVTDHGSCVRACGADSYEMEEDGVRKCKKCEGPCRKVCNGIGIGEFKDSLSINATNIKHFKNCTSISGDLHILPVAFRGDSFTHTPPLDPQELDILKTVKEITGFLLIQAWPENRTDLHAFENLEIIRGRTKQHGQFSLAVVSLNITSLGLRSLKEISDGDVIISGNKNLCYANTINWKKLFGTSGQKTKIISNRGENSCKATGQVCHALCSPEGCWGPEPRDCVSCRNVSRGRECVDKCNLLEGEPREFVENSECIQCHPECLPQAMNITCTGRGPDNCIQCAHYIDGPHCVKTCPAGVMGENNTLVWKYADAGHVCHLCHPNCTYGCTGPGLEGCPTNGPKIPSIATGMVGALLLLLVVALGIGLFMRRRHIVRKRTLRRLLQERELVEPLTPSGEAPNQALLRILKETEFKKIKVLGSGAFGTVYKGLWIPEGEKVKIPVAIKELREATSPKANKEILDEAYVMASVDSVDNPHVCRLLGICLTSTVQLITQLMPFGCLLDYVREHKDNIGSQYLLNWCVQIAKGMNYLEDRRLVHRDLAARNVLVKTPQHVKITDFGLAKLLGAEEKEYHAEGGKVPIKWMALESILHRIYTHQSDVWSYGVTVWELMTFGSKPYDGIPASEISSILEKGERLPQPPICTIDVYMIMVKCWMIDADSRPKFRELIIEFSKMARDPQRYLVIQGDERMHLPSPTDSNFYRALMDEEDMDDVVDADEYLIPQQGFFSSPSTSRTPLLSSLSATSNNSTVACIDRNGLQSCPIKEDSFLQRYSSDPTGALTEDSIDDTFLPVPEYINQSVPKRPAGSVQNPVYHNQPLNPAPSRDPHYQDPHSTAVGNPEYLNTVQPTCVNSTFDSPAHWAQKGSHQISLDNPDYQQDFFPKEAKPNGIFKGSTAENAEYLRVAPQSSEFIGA
# T2 sequence (O43683 704-1085): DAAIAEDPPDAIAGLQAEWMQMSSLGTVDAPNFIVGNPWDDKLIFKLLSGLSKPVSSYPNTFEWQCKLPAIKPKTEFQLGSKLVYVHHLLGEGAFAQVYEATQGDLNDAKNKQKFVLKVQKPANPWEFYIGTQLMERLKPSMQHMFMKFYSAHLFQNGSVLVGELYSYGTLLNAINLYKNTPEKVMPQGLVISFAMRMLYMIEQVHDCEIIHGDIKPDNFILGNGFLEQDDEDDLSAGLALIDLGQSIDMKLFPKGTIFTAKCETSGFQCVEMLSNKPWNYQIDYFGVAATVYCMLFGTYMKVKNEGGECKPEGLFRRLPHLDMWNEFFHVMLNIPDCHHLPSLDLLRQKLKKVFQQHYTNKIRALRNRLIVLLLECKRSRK
# T1 sequence (P00533 other isoform, or with tags, fused parts or gaps DUP768-770): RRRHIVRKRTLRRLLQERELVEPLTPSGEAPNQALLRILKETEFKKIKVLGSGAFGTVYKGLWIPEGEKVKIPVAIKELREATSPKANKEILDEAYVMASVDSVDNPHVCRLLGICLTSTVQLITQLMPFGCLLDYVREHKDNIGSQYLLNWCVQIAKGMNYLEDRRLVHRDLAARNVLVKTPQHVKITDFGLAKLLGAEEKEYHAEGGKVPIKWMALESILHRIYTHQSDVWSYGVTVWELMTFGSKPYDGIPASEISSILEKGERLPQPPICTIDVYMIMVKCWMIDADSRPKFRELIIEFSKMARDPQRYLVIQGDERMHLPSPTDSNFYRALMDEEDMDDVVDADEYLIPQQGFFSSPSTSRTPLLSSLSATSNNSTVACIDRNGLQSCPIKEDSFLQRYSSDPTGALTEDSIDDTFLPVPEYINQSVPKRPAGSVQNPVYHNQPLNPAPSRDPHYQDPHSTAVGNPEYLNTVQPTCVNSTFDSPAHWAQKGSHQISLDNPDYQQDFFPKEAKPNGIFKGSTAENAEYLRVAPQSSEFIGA
mutEGFR (D770_N771insSVD) kinase assay IC50 [1],IC50 [3],Structure (SMILES),GI50 [2],GI50 [4]
0.15 nM,> 20000 nM,"COc1c(Cl)cccc1Nc1c(-c2ccncc2OCC2COC(C)(C)CO2)[nH]c2c1C(=O)N[C@H](C)C2 (mixture of isomers) [Example 77, (6R)-3-(3-chloro-2-methoxy-anilino)-2-{3-[(5,5-dimethyl-1,4-dioxan-2-yl)methoxy]-4-pyridyl}-6-methyl-1,5,6,7-tetrahydropyrrolo[3,2-c]pyridin-4-one]",15.3 nM,3200 nM
0.115 nM,> 20000 nM,"Cc1c(Cl)cccc1Nc1c(-c2ccncc2OC[C@@H]2CN(C)CCO2)[nH]c2c1C(=O)N[C@H](C)C2 [Example 107, (6R)-3-(3-chloro-2-methylanilino)-6-methyl-2-(3-{[(2S)-4-methylmorpholin-2-yl]methoxy}pyridin-4-yl)-1,5,6,7-tetrahydro-4H-pyrrolo[3,2-c]pyridin-4-one]",25 nM,546 nM
0.0981 nM and <0.0725 nM,399 nM,"COc1c(Cl)cccc1Nc1c(-c2ccncc2OC[C@@H]2CCCO2)[nH]c2c1C(=O)NC(C(F)(F)F)C2 (single isomer, unassigned) [Example 40]",64.3 nM,480 nM
0.796 nM,> 20000 nM,"COc1c(Cl)cccc1Nc1c(-c2ccncc2OCC2(C)CCO2)[nH]c2c1C(=O)NCC2CCO (single isomer, unassigned) [Example 23, 3-(3-chloro-2-methoxyanilino)-7-(2-hydroxyethyl)-2-{3-[(2-methyloxetan-2-yl)methoxy]pyridin-4-yl}-1,5,6,7-tetrahydro-4H-pyrrolo[3,2-c]pyridin-4-one]",920 nM,7380 nM
0.418 nM,> 20000 nM,"COCC(C)Oc1cnccc1-c1[nH]c2c(c1Nc1cccc(Cl)c1OC)C(=O)N[C@H](C)C2 (single isomer, unassigned) [Example 43]",219 nM,1860 nM
0.145 nM,1730 nM,"Cc1c(Cl)cccc1Nc1c(-c2ccncc2OCC2COCCO2)[nH]c2c1C(=O)NCC2C (centres unmarked) [Example 66, 3-(3-chloro-2-methyl-anilino)-2-[3-(1,4-dioxan-2-ylmethoxy)-4-pyridyl]-7-methyl-1,5,6,7-tetrahydropyrrolo[3,2-c]pyridin-4-one]",42.8 nM,766 nM
0.151 nM,7070 nM,"COc1c(Cl)cccc1Nc1c(-c2ccncc2OCC2OCCC2(F)F)[nH]c2c1C(=O)N[C@H](C)C2 (single isomer, unassigned) [Example 72]",36.6 nM,628 nM

Structure (SMILES),mutEGFR (D770_N771insSVD) kinase assay IC50 [1],IC50 [3],GI50 [2],GI50 [4]
"COc1c(Cl)cccc1Nc1c(-c2ccncc2OCCC2CCCCO2)[nH]c2c1C(=O)N[C@H](C)C2 (single isomer, unassigned) [Example 88]",0.326 nM,978 nM,70.4 nM,634 nM
